Experimental data taken from US9126959B2, “PPAR-sparing thiazolidinedione salts for the treatment of metabolic diseases” (Metabolic Solutions Development Company, LLC, priority 2009, dated 2015).
Where a name gives a salt, the structure may show the parent alone.

Key:
[1] = AUC of compound related materials after oral dosing of Compound B free acid or its Na or K salt; assay type: in vivo; details: cynomolgus monkeys, 250 mg free acid equivalents, formulated tablets; compared with free acid
Protocol: Referring to FIG. 10, the area under the curve (AUC) of compound related materials was compared following dosing of 250 mg of Compound B as powder in capsules of free acid (PIC), formulated tablets of micronized free acid, or formulated tablets of the Na or K salt of Compound B given at the same free acid equivalents. (N=4 cynomolgus monkeys). The formulated, compressed tablet also contained in each case approximately 40.5% lactose, 16.8% microcrystalline cellulose, 1.9% Croscarmellose sodium, 0.5% colloidal silicon dioxide, and 0.9% magnesium stearate.

[2] = Moisture sorption analysis of metal salts of Compound B; assay type: physicochemical; details: 25° C.
Protocol: Metal salts of compounds of Formula I were characterized using XRPD, DSC, thermogravimetry, and moisture sorption analyses. Note that XRPD patterns described below, and provided in FIGS. 1 and 5 were obtained using a Bruker Model D8 X-Ray Diffractometer. Thermogravimetric analyses, DSC analyses, and moisture sorption analyses were performed using a TA Instruments Universal V4.4A instrument.
FIG. 1 provides the XRPD pattern of a sample of a sodium salt of Compound B Referring to FIGS. 2-4, thermogravimetric, DSC, and moisture sorption analyses were performed on a sodium salt of Compound B. Thermogravimetric analysis was conducted using 7.5450 mg of the sodium salt and an instrument setting of 10° C./min. The DSC analysis was performed using a 2.00 mg sample of the sodium salt and an instrument setting of 10° C./min. The moisture sorption analysis was performed on 14.07 mg of sodium salt over a relative humidity range of 5% to 95% at 25° C. with 180 minute max. equilibration time and data sampling every 2 minutes.
FIG. 5 provides the XRPD pattern of a sample of a potassium salt of Compound B Referring to FIGS. 6-8, thermogravimetric, DSC, and moisture sorption analyses were performed on a potassium salt of Compound B. Thermogravimetric analysis was conducted using 15.9290 mg of the potassium salt and an instrument setting of 10° C./min. […]

diabetic KKAy mouse = assay: Blood glucose lowering in the diabetic KKAy mouse; assay type: in vivo; details: diabetic KKAy mice, gavage once daily, measured after 4 daily doses
Protocol: In these experiments, free base or sodium salt was given to diabetic KKAy mice (N=6) and blood glucose was measured after 4 days of daily treatment at the doses indicated. KKAy mice, 8-12 weeks of age, were given the doses of the compounds according to the dosages on the X axis of FIG. 11. The compounds were given by gavage once daily at 10 mg/kg. On the fifth day (after 4 daily doses at the levels show) a blood sample was taken to measure plasma glucose.

[3] = Bioavailability of sodium salt of Compound A, oral capsule versus iv injection, crossover design; assay type: in vivo; details: male cynomolgus monkeys, oral gavage, 90 mg free base equivalents in gelatin capsules; compared with free base
Protocol: The monkeys fasted overnight and were dosed by oral gavage washed down with 10 ml tap water. Blood samples were taken at 0.25, 0.5, 1, 2, 3, 4, 6, 9, 12, 24, and 48 hours after a single dosage was administered and assayed for drug related materials with a LCMS assay using an internal standard. 90 mg of drug was put in 00 gelatin capsules containing 90 mg of free base equivalents. This was compared to an iv injection of 2 ml/kg and 45 mg of free base solution in 50% hydroxypropyl b-cyclodextran. The absolute availability versus an iv injection was determined for both parent compound and major metabolite.

| absolute availability versus an iv injection, major metabolite [3] | absolute availability versus an iv injection, parent compound [3] | Structure (SMILES) | bioavailability (AUC of compound related materials) [1] | moisture uptake ([2]; between ~6% and ~95% RH) | water uptake ([2]; relative humidity increased from ~5% to ~95% RH) | lowering blood glucose (plasma glucose) (diabetic KKAy mouse) |
| --- | --- | --- | --- | --- | --- | --- |
|  |  | COc1cccc(C(=O)COc2ccc(CC3SC(=O)[N-]C3=O)cc2)c1.[Na+] (stereo not shown) [sodium salt of Compound B, Sodium 5-{4-[2-(3-methoxyphenyl)-2-oxoethoxy]benzyl}-2,4-dioxo-1,3-thiazolidin-3-ide] | significantly higher bioavailability | ~10.0 wt % |  |  |
|  |  | COc1cccc(C(=O)COc2ccc(CC3SC(=O)[N-]C3=O)cc2)c1.[K+] (stereo not shown) [potassium salt of Compound B, Potassium 5-{4-[2-(3-methoxyphenyl)-2-oxoethoxy]benzyl}-2,4-dioxo-1,3-thiazolidin-3-ide] | significantly higher bioavailability |  | ~21.1 wt % |  |
| significantly higher bioavailability | significantly higher bioavailability | CCc1ccc(C(=O)COc2ccc(CC3SC(=O)NC3=O)cc2)nc1 (stereo not shown) [sodium salt of Compound A, 5-(4-(2-(5-ethylpyridin-2-yl)-2-oxoethoxy)benzyl)-1,3-thiazolidine-2,4-dione] |  |  |  | excellent dose response for lowering blood glucose |
